Here are results for ten molecules from patent publication US20020099070A1, “Dihydronaphthyridine potassium channel openers” (priority 2000, published 2002).

The structures appear in SMILES notation.

Assay [1] has as its system primary cultured guinea-pig urinary bladder (GPB) cells. Description: Membrane hyperpolarization (MHP) assay, DiBAC(4)3 / FLIPR. It counts as cell-based. As to conditions: for Emax / Maximal Response (% P1075): maximal steady-state hyperpolarization, normalized to 10 μM P1075 = 100%; for Emax: read-out: Maximal Response (% P1075); for EC50: membrane hyperpolarization in GPB cells. On the procedure:
Compounds were evaluated for potassium channel opening activity using primary cultured guinea-pig urinary bladder (GPB) cells.
For the preparation of urinary bladder smooth muscle cells, urinary bladders were removed from male guinea-pigs (Hartley, Charles River, Wilmington, Mass.) weighing 300-400 g and placed in ice-cold Ca^2+-free Krebs solution (Composition, mM: KCl, 2.7; KH2PO4, 1.5; NaCl, 75; Na2HPO4, 9.6; Na2HPO4.7H2O, 8; MgSO4, 2; glucose, 5; HEPES, 10; pH 7.4). Cells were isolated by enzymatic dissociation as previously described with minor modifications in Klockner, U. and Isenberg, G., Pflugers Arch. 1985, 405, 329-339, hereby incorporated by reference. The bladder was cut into small sections and incubated in 5 mL of the Kreb's solution containing 1 mg/mL collagenase (Sigma, St. Louis, Mo.) and 0.2 mg/mL pronase (Calbiochem, La Jolla, Calif.) with continuous stirring in a cell incubator for 30 minutes. The mixture was then centrifuged at 1300×g for 5 minutes, and the pellet resuspended in Dulbecco's PBS (GIBCO, Gaithersburg, Md.) and recentrifuged to remove residual enzyme. The cell pellet was resuspended in 5 mL growth media (composition: Dulbecco's modified Eagle's medium supplemented with 10% fetal bovine serum, 100 units/mL penicillin, 100 units/mL streptomycin and […] amphotericin B) and further dissociated by pipetting the suspension through a flame-polished Pasteur pipette and passing it through a polypropylene mesh membrane (Spectrum, Houston, Tex.). The cell density was adjusted to 100,000 cells/mL by resuspension in growth media. Cells were plated in clear-bottomed black 96-well plates (Packard) for membrane potential studies at a density of 20,000 cells/well and maintained in a cell incubator with 90% air: 10% CO2 until confluent. Cells were confirmed to be of smooth muscle type by cytoskeletal staining using a monoclonal mouse anti human-α-smooth muscle actin (Biomeda, Foster City, Calif.).
Functional activity at potassium channels was measured by evaluating changes in membrane potential using the bis-oxonol dye DiBAC(4)3 (Molecular Probes) in a 96-well cell-based kinetic assay system, Fluorescent Imaging Plate Reader (FLIPR) (K. S. Schroeder et al., J. Biomed. Screen., v. 1 pp. 75-81 (1996)), hereby incorporated by reference. DiBAC(4)3 is an anionic potentiometric probe which partitions between cells and extracellular solution in a membrane potential-dependent manner. With increasing membrane potential (for example, K^+ depolarization), the probe fuither partitions into the cell; this is measured as an increase in fluorescence due to dye interaction with intracellular lipids and proteins. Conversely, decreasing membrane potential (hyperpolarization by potassium channel openers) evokes a decrease in fluorescence.
Confluent guinea-pig urinary bladder cells cultured in black clear-bottomed 96-well plates were rinsed twice with […] assay buffer (composition, mM: HEPES, 20; NaCl, 120; KCl, 2; CaCl2, 2; MgCl2, 1; glucose, 5; pH 7.4 at 25° C.) containing 5 μM DiBAC(4)3 and incubated with […] of the buffer in a cell incubator for 30 minutes at 37° C. to ensure dye distribution across the membrane. After recording the baseline fluorescence for 5 minutes, the reference or test compounds, prepared at 10 times the concentration in the assay buffer, were added directly to the wells. Changes in fluorescence were monitored for an additional 25 minutes. Hyperpolarization responses were corrected for any background noise and were normalized to the response observed with 10 μM of the reference compound P1075, N″-cyano-N-(tert-pentyl)-N′-(3-pyridinyl)guanidine, which was assigned as 100%. P1075 is a potent opener of smooth muscle KATP channels (Quast et al., Mol. Pharmacol., v. 43 pp. 474-481 (1993)) and was prepared using the procedures described in (Manley, J. Med. Chem. (1992) 35, 2327-2340), hereby incorporated by reference. […]

The test system of assay [2] is Landrace pig bladder strips. Description: Functional potassium channel opening activity in isolated bladder strips (field-stimulated twitch). As to conditions: for Index: ED50 for P1075 divided by ED50 for test agonist, averaged over tissues; for EC50: Sus scrofa, read-out: pD2 (converted); for EC50 / pD2: negative logarithm of ED50; for Efficacy (% P1075): maximal efficacy relative to P1075, field stimulation 0.05 Hz, 0.5 ms, 20 volts. The method, then: Compounds were evaluated for functional potassium channel opening activity using tissue strips obtained from Landrace pig bladders.
Landrace pig bladders were obtained from female Landrace pigs of 9-30 kg. Landrace pigs were euthanized with an intraperitoneal injection of pentobarbital solution, Somlethal® , J. A. Webster Inc., Sterling, Mass. The entire bladder was removed and immediately placed into Krebs Ringer bicarbonate solution (composition, mM: NaCl, 120; NaHCO3, 20; dextrose, 11; KCl, 4.7; CaCl2, 2.5; MgSO4, 1.5; KH2PO4, 1.2; K2EDTA, 0.01, equilibrated with 5% CO2/95% O2 pH 7.4 at 37° C.). Propranolol (0.004 mM) was included in all of the assays to block β-adrenoceptors. The trigonal and dome portions were discarded. Strips 3-5 millimeters (mm) wide and 20 mm long were prepared from the remaining tissue cut in a circular fashion. The mucosal layer was removed. One end was fixed to a stationary glass rod and the other to a Grass FT03 transducer at a basal preload of 1.0 g. Two parallel platinum electrodes were included in the stationary glass rod to provide field stimulation of 0.05 Hz, 0.5 milli-seconds at 20 volts. This low frequency stimulation produced a stable twitch response of 100-500 centigrams. Tissues were allowed to equilibrate for at least 60 minutes and primed with 80 mM KCl. A control concentration response curve (cumulative) was generated for each tissue using the potassium channel opener P1075 as the control agonist. […] After a 60 minute rinsing period, a concentration response curve (cumulative) was generated for the test agonist in the same fashion as that used for the control agonist P1075. The maximal efficacy of each compounds (expressed as % relative to P1075) is reported. The amount of agent necessary to cause 50% of the agent's maximal response (ED50) was calculated using “ALLFIT” (DeLean et al., Am. J. Physiol., 235, E97 (1980)), and agonist potencies were expressed as pD2 (the negative logarithm). Agonist potencies were also expressed as an index relative to P1075. The index was calculated by dividing the ED50 for P1075 by the ED50 for the test agonist in a give tissue. Each tissue was used for only one test agonist, and the indices obtained from each tissue were averaged to provide an average index of potency.

`CC1=C(C#N)C(c2ccc(F)c(Br)c2)C2=C(CCNC2=O)N1` (centres unmarked) [Example 2, 4-(3-bromo-4-fluorophenyl)-3-cyano-2-methyl-4,6,7,8-tetrahydro[1,6]naphthyridin-5(1H)-one]: in assay [1] (Cavia porcellus), the Emax is 122% and the EC50 came to 100 nM. Moreover, in assay [2], the Index was 0.2653, the EC50 was 692 nM and the “Efficacy (% P1075)” value is on record as 60 % P1075.
As to `CC1=C(C#N)C(c2ccc(F)c(Br)c2)c2c(cc[nH]c2=O)N1` (centres unmarked) [Example 5, 4-(3-bromo-4-fluorophenyl)-3-cyano-2-methyl-4,6-dihydro[1,6]naphthyridin-5(1H)-one], in assay [1] (Cavia porcellus), the Emax was 114%. Moreover, the EC50 in assay [1] worked out at 17 nM. Besides, in assay [2], the Index worked out at 1.2740, the “Efficacy (% P1075)” value was determined as 98 % P1075 and the pD2 was 6.85.
As for `CC1=C(C#N)C(c2ccc(F)c(Br)c2)c2c(cc[nH]c2=O)N1` (centres unmarked) [Example 6, 4-(3-bromo-4-fluorophenyl)-3-cyano-2-methyl-4,6-dihydro[1,6]naphthyridin-5(1H)-one], in assay [1], the “Maximal Response (% P1075)” value is on record as 102 % P1075 and the EC50 amounted to 1500 nM. For the same molecule, in assay [2], the Index is reported as 0.0318, the “Efficacy (% P1075)” value came to 67 % P1075 and the pD2 was 4.89.
`CC1=C(C#N)C(c2ccc(F)c(Br)c2)c2c(ccn(C)c2=O)N1` (centres unmarked) [Example 7, 4-(3-bromo-4-fluorophenyl)-3-cyano-2,6-dimethyl-4,6-dihydro[1,6]naphthyridin-5(1H)-one]: in assay [2], the Index amounted to 2.826, the EC50 is 10.2 nM and the “Efficacy (% P1075)” value is 100 % P1075.
`CC1=C(C#N)C(c2ccc(F)c(C(F)(F)F)c2)C2=C(CCOC2=O)N1` (centres unmarked) [Example 26, 4-[4-fluoro-3-(trifluoromethyl)phenyl]-3-cyano-2-methyl-1,4,7,8-tetrahydro-5H-pyrano[4,3-b]pyridin-5-one]: in assay [2], the Index was determined as 0.6715, the EC50 was 275 nM and the “Efficacy (% P1075)” value came to 98 % P1075.
On to `CC1=C(C#N)C(c2ccc(F)c(Br)c2)c2c(ccnc2Cl)N1` (centres unmarked) [Example 33, 4-(3-bromo-4-fluorophenyl)-5-chloro-3-cyano-2-methyl-1,4-dihydro[1,6]naphthyridine], for which, in assay [1], the “Maximal Response (% P1075)” value is given as 65 % P1075 and the EC50 amounted to 28 nM. Besides, in assay [2], the Index is 0.0353, the “Efficacy (% P1075)” value came out at 61 % P1075 and the pD2 was determined as 5.31.
`CC1=C(C#N)C(c2ccc(F)c(Br)c2)c2c(ccnc2Cl)N1` (centres unmarked) [Example 34, 4-(3-bromo-4-fluorophenyl)-5-chloro-3-cyano-2-methyl-1,4-dihydro[1,6]naphthyridine]: in assay [1], the “Maximal Response (% P1075)” value is listed as 90 % P1075 and the EC50 turned out to be 6 nM. Moreover, in assay [2], the Index came out at 0.2089, the “Efficacy (% P1075)” value came to 85 % P1075 and the pD2 is 6.14.
For the molecule `CC1=C(C#N)C(c2ccc(F)c(Br)c2)c2c(cc[nH]c2=S)N1` (centres unmarked) [Example 35, 4-(3-bromo-4-fluorophenyl)-3-cyano-2-methyl-4,6-dihydro[1,6]naphthyridine-5(1H)-thione], in assay [2], the Index amounted to 0.3068, the EC50 is 794 nM and the “Efficacy (% P1075)” value is recorded as 77 % P1075.
Taken in the same sequence, the figures for `COc1nccc2c1C(c1ccc(F)c(Br)c1)C(C#N)=C(C)N2` (centres unmarked) [Example 38, 4-(3-bromo-4-fluorophenyl)-3-cyano-2-methyl-5-methoxy-1,4-dihydro[1,6]naphthyridine] were 0.2488, 1000 nM and 78 % P1075.
Consider `CCC(C)(C)NC(=NC#N)Nc1cccnc1` [Example P1075, N″-cyano-N-(tert-pentyl)-N′-(3-pyridinyl)guanidine, reference compound], for which, in assay [2] (P1075: concentration range 10^−9 to 10^−5 M, cumulative), the “effect on stimulated twitch / contractions of the bladder” value is reported as “completely eliminated the stimulated twitch”.
